# In patent US10005774B2, “Syk inhibitors” (Gilead Sciences, Inc., priority 2013, dated 2018):
# Biological target: Syk (Homo sapiens, UniProt P43405)
# Assay: High Throughput Syk Biochemical Assay (KinEASE TR-FRET)
# Settings: TABLE D, 20 μM ATP, 1 μM biotinylated peptide, 0.015 nM Syk, 30 min at room temperature, read-out: IC50
# Method: High Throughput Syk Biochemical Assay
# Syk activity was measured using KinEASE (Cisbio), a time-resolved fluorescence resonance energy transfer (TR-FRET) immunoassay. In this assay. Syk-catalyzes the phosporylation of a XL665-labeled peptide substrate. Europium conjugated phospho-tyrosine specific antibody binds the resulting phosphorylated peptide. Formation of phosphorylated peptide is quantified by TR-FRET with Europium as the donor and XL665 the acceptor in a 2-step endpoint assay. In brief, test compounds serially diluted in DMSO were delivered into Corning white, low volume, non-binding 384 well plates using the Echo 550 acoustic liquid dispenser (Labcyte®). Syk enzyme and substrates were dispensed into assay plates using a Multi-Flo (Bio-Tek Instruments). […] Percent inhibition was calculated as follows: % Inhibition=100×(RatioSample−Ratio0% Inhibition)/(Ratio100% Inhibition−Ratio0% Inhibition)
row,IC50,Structure (SMILES)
1,184 nM,"C[C@@H](Oc1nc(-c2cccc3scnc23)cc2ncn(C)c12)[C@H]1CNC(=O)C1 [(R)-4-((R)-1-(6-(benzo[d]thiazol-4-yl)-3-methyl-3H-imidazo[4,5-c]pyridin-4-yloxy)ethyl)pyrrolidin-2-one]"
2,20.8 nM,"C[C@@H](Oc1nc(-c2cnn(CC(F)(F)F)c2)cc2ncn(C)c12)[C@H]1CNC(=O)C1 [(R)-4-((R)-1-(3-methyl-6-(1-(2,2,2-trifluoroethyl)-1H-pyrazol-4-yl)-3H-imidazo[4,5-c]pyridin-4-yloxy)ethyl)pyrrolidin-2-one]"
3,39.5 nM,"COc1cc(-c2cc3ncn(C)c3c(O[C@H](C)[C@H]3CNC(=O)C3)n2)ccc1F [(R)-4-((R)-1-(6-(4-fluoro-3-methoxyphenyl)-3-methyl-3H-imidazo[4,5-c]pyridin-4-yloxy)ethyl)pyrrolidin-2-one]"
4,0.271 nM,"C[C@@H](Oc1cc(-c2cnn(C(C)(C)C)c2)cn2ncc(Cl)c12)[C@H]1CNC(=O)C1 [(R)-4-((R)-1-((6-(1-(tert-butyl)-1H-pyrazol-4-yl)-3-chloropyrazolo[1,5-a]pyridin-4-yl)oxy)ethyl)pyrrolidin-2-one]"
5,0.681 nM,C[C@@H](Oc1cc(-c2ccc(N3CCN(C4COC4)CC3)cc2)cc2ncsc12)[C@H]1CNC(=O)C1 (stereo in doubt) [(R)-4-((R)-1-((5-(4-(4-(oxetan-3-yl)piperazin-1-yl)phenyl)benzo[d]thiazol-7-yl)oxy)ethyl)pyrrolidin-2-one]
6,70 nM,"COc1ccc(-c2cc(O[C@H](C)[C@H]3CNC(=O)C3)c3sc(C)nc3c2)cc1OC [(R)-4-((R)-1-((5-(3,4-dimethoxyphenyl)-2-methylbenzo[d]thiazol-7-yl)oxy)ethyl)pyrrolidin-2-one]"
7,1.88 nM,C[C@@H](Oc1cc(-c2ccc(N3CCOCC3)cn2)cc2ncsc12)[C@H]1CNC(=O)C1 (stereo in doubt) [(R)-4-((R)-1-((5-(5-morpholinopyridin-2-yl)benzo[d]thiazol-7-yl)oxy)ethyl)pyrrolidin-2-one]
8,41.7 nM,"Cc1c(-c2cc3ncn(C)c3c(O[C@H](C)[C@H]3CNC(=O)C3)n2)cnn1C [(R)-4-((R)-1-(6-(1,5-dimethyl-1H-pyrazol-4-yl)-3-methyl-3H-imidazo[4,5-c]pyridin-4-yloxy)ethyl)pyrrolidin-2-one]"
9,17.2 nM,"COc1ccc(-c2cc3ncn(C)c3c(O[C@H](C)[C@H]3CNC(=O)C3)n2)cc1F [(R)-4-((R)-1-(6-(3-fluoro-4-methoxyphenyl)-3-methyl-3H-imidazo[4,5-c]pyridin-4-yloxy)ethyl)pyrrolidin-2-one]"
10,102 nM,"C[C@@H](Oc1nc(-c2cccc(N3CCOCC3)c2)cc2ncn(C)c12)[C@H]1CNC(=O)C1 [(R)-4-((R)-1-(3-methyl-6-(3-morpholinophenyl)-3H-imidazo[4,5-c]pyridin-4-yloxy)ethyl)pyrrolidin-2-one]"
11,71.7 nM,"COc1ccc(-c2cc3ncn(C)c3c(O[C@H](C)[C@H]3CNC(=O)C3)n2)cn1 [(R)-4-((R)-1-(6-(6-methoxypyridin-3-yl)-3-methyl-3H-imidazo[4,5-c]pyridin-4-yloxy)ethyl)pyrrolidin-2-one]"
12,24.3 nM,"C[C@@H](Oc1nc(-c2cnn(C)c2)cc2ncn(C)c12)[C@H]1CNC(=O)C1 [(R)-4-((R)-1-(3-methyl-6-(1-methyl-1H-pyrazol-4-yl)-3H-imidazo[4,5-c]pyridin-4-yloxy)ethyl)pyrrolidin-2-one]"
13,38.2 nM,"COc1ccc(-c2cc(O[C@H](C)[C@H]3CNC(=O)C3)c3c(c2)ncn3C)cc1OC [(R)-4-((R)-1-((5-(3,4-dimethoxyphenyl)-1-methyl-1H-benzo[d]imidazol-7-yl)oxy)ethyl)pyrrolidin-2-one]"
14,16.7 nM,COc1ccc(-c2cc3ncn(C)c3c(O[C@H](C)[C@H]3CNC(=O)C3)n2)cc1C#N

# Same assay, conditions: table 'ALL NEW COMPOUNDS IN 2014', 20 μM ATP, 1 μM biotinylated peptide, 0.015 nM Syk, 30 min at room temperature, read-out: Syk IC50
row,IC50,Structure (SMILES)
1,5.69 nM,"C[C@@H](Oc1nc(-c2ccc(N3CC(N4CCOCC4)C3)cc2)cc2ncn(C3CC3)c12)[C@H]1CNC(=O)C1 [(R)-4-((R)-1-((3-cyclopropyl-6-(4-(3-morpholinoazetidin-1-yl)phenyl)-3H-imidazo[4,5-c]pyridin-4-yl)oxy)ethyl)pyrrolidin-2-one]"
2,2.76 nM,C[C@@H](Oc1cc(-c2ccc(N3CCN(C4COC4)CC3)cc2F)cc2ncn(C3CC3)c12)[C@H]1CNC(=O)C1 [(R)-4-((R)-1-((1-cyclopropyl-5-(2-fluoro-4-(4-(oxetan-3-yl)piperazin-1-yl)phenyl)-1H-benzo[d]imidazol-7-yl)oxy)ethyl)pyrrolidin-2-one]
3,2.25 nM,"C[C@@H](Oc1nc(-c2ccc3c(c2)NCCN3C)cc2ncn(C3CC3)c12)[C@H]1CNC(=O)C1 [(R)-4-((R)-1-((3-cyclopropyl-6-(1-methyl-1,2,3,4-tetrahydroquinoxalin-6-yl)-3H-imidazo[4,5-c]pyridin-4-yl)oxy)ethyl)pyrrolidin-2-one]"
4,10.6 nM,C[C@@H](Oc1cc(-c2ccccn2)cc2ncn(C3CC3)c12)[C@H]1CNC(=O)C1 [(R)-4-((R)-1-((1-cyclopropyl-5-(pyridin-2-yl)-1H-benzo[d]imidazol-7-yl)oxy)ethyl)pyrrolidin-2-one]
5,4.44 nM,C[C@@H](Oc1cc(-c2cnn(C)c2)cc2ncn(C3CC3)c12)[C@H]1CNC(=O)C1 [(R)-4-((R)-1-((1-cyclopropyl-5-(1-methyl-1H-pyrazol-4-yl)-1H-benzo[d]imidazol-7-yl)oxy)ethyl)pyrrolidin-2-one]
6,3.83 nM,"C[C@@H](Oc1cc(-c2ccc3c(c2)NCCN3C)cc2ncn(C3CC3)c12)[C@H]1CNC(=O)C1 [(R)-4-((R)-1-((1-cyclopropyl-5-(1-methyl-1,2,3,4-tetrahydroquinoxalin-6-yl)-1H-benzo[d]imidazol-7-yl)oxy)ethyl)pyrrolidin-2-one]"
7,8.38 nM,"COc1cc(-c2cc3ncn(C4CC4)c3c(O[C@H](C)[C@H]3CNC(=O)C3)n2)cnc1OC [(R)-4-((R)-1-((3-cyclopropyl-6-(5,6-dimethoxypyridin-3-yl)-3H-imidazo[4,5-c]pyridin-4-yl)oxy)ethyl)pyrrolidin-2-one]"
8,10.6 nM,C[C@@H](Oc1cc(-c2ccn(C)n2)cc2ncn(C3CC3)c12)[C@H]1CNC(=O)C1 [(R)-4-((R)-1-((1-cyclopropyl-5-(1-methyl-1H-pyrazol-3-yl)-1H-benzo[d]imidazol-7-yl)oxy)ethyl)pyrrolidin-2-one]
9,12.5 nM,C[C@@H](Oc1nc(-c2ccccc2)cc2ncn(C3CC3)c12)[C@H]1CNC(=O)C1
10,3.21 nM,C[C@@H](Oc1cc(-c2cnn(C3COC3)c2)cc2ncn(C3CC3)c12)[C@H]1CNC(=O)C1 [(R)-4-((R)-1-((1-cyclopropyl-5-(1-(oxetan-3-yl)-1H-pyrazol-4-yl)-1H-benzo[d]imidazol-7-yl)oxy)ethyl)pyrrolidin-2-one]
11,9.65 nM,C[C@@H](Oc1nc(-c2cnn(CC(C)(C)O)c2)cc2ncn(C3CC3)c12)[C@H]1CNC(=O)C1
12,11.9 nM,"C[C@@H](Oc1nc(-c2ccncc2)cc2ncn(C3CC3)c12)[C@H]1CNC(=O)C1 [(R)-4-((R)-1-((3-cyclopropyl-6-(pyridin-4-yl)-3H-imidazo[4,5-c]pyridin-4-yl)oxy)ethyl)pyrrolidin-2-one]"
13,65.3 nM,"O=C1C[C@@H](COc2nc(-c3ccc(N4CCN(C5COC5)CC4)cc3)cc3ncn(C4CC4)c23)CN1 [(R)-4-(((3-cyclopropyl-6-(4-(4-(oxetan-3-yl)piperazin-1-yl)phenyl)-3H-imidazo[4,5-c]pyridin-4-yl)oxy)methyl)pyrrolidin-2-one]"
14,0.442 nM,C[C@@H](Oc1cc(-c2nc(C(C)(C)C)cs2)cc2ncn(C3CC3)c12)[C@H]1CNC(=O)C1 [(R)-4-((R)-1-((5-(4-(tert-butyl)thiazol-2-yl)-1-cyclopropyl-1H-benzo[d]imidazol-7-yl)oxy)ethyl)pyrrolidin-2-one]
15,4.65 nM,C[C@@H](Oc1cc(-c2ccc(N3CCC(C4COC4)CC3)cn2)cc2ncn(C3CC3)c12)[C@H]1CNC(=O)C1 [(R)-4-((R)-1-((1-cyclopropyl-5-(5-(4-(oxetan-3-yl)piperidin-1-yl)pyridin-2-yl)-1H-benzo[d]imidazol-7-yl)oxy)ethyl)pyrrolidin-2-one]
16,24.6 nM,C[C@@H](Oc1cc(-c2ccncn2)cc2ncn(C3CC3)c12)[C@H]1CNC(=O)C1 [(R)-4-((R)-1-((1-cyclopropyl-5-(pyrimidin-4-yl)-1H-benzo[d]imidazol-7-yl)oxy)ethyl)pyrrolidin-2-one]
17,8.29 nM,C[C@@H](Oc1nc(-c2cnn(-c3ccncc3)c2)cc2ncn(C3CC3)c12)[C@H]1CNC(=O)C1
18,4.84 nM,C[C@@H](Oc1nc(-c2ccc3c(c2)n(C)c(=O)n3C)cc2ncn(C3CC3)c12)[C@H]1CNC(=O)C1
19,8.43 nM,C[C@@H](Oc1cc(-c2cccc(N)n2)cc2ncn(C3CC3)c12)[C@H]1CNC(=O)C1 [(R)-4-((R)-1-((5-(6-aminopyridin-2-yl)-1-cyclopropyl-1H-benzo[d]imidazol-7-yl)oxy)ethyl)pyrrolidin-2-one]
20,7.58 nM,C[C@@H](Oc1cc(-c2cnn(-c3ccncc3)c2)cc2ncn(C3CC3)c12)[C@H]1CNC(=O)C1 [(R)-4-((R)-1-((1-cyclopropyl-5-(1-(pyridin-4-yl)-1H-pyrazol-4-yl)-1H-benzo[d]imidazol-7-yl)oxy)ethyl)pyrrolidin-2-one]

row,Structure (SMILES),IC50
1,"C[C@@H](Oc1nc(-c2ccc(N3CC4CC(C3)N4)cc2)cc2ncn(C3CC3)c12)[C@H]1CNC(=O)C1 [(4R)-4-((1R)-1-((6-(4-(3,6-diazabicyclo[3.1.1]heptan-3-yl)phenyl)-3-cyclopropyl-3H-imidazo[4,5-c]pyridin-4-yl)oxy)ethyl)pyrrolidin-2-one]",2.29 nM
